Here are results for one compound from PMC5218480 (PLoS ONE, 2017).

In the assay the test system is MV-4-11 cells. The assay can be described thus: Gene expression microarray analysis (Affymetrix PrimeView) and GSEA. It counts as cell-based, human. More on the design: RFU PODN (11730768_x_at) / Fold change /veh PODN (11730768_x_at) / RFU LINC00158 (11744669_a_at) / Fold change /veh LINC00158 (11744669_a_at) / RFU DUSP10 (11751237_a_at) / Fold change /veh DUSP10 (11751237_a_at) / RFU ID3 (11757404_x_at) / Fold change /veh ID3 (11757404_x_at) / RFU PLEKHG5 (11737974_s_at) / Fold change /veh PLEKHG5 (11737974_s_at) / RFU LRRC4B (11730491_at) / Fold change /veh LRRC4B (11730491_at) / RFU GIMAP4 (11747438_a_at) / Fold change /veh GIMAP4 (11747438_a_at) / RFU KRT8 (11758183_x_at) / Fold change /veh KRT8 (11758183_x_at) / RFU CNN1 (11734310_a_at) / Fold change /veh CNN1 (11734310_a_at) / RFU VPS37D (11726825_at) / Fold change /veh VPS37D (11726825_at) / RFU C10orf10 (11716522_x_at) / Fold change /veh C10orf10 (11716522_x_at) / RFU KIR2DL2 /// KIR2DL4 /// KIR2DL5A /// KIR2DL5B /// KIR2DS1 /// KIR2DS2 /// KIR2DS3 /// KIR2DS4 /// KIR3DL3 /// KIR3DL3 /// KIR3DS1 (11738374_at) / Fold change /veh KIR2DL2 /// KIR2DL4 /// KIR2DL5A /// KIR2DL5B /// KIR2DS1 /// KIR2DS2 /// KIR2DS3 /// KIR2DS4 /// KIR3DL3 /// KIR3DL3 /// KIR3DS1 (11738374_at) / RFU C1QL1 (11718748_at) / Fold change /veh C1QL1 (11718748_at) / RFU TMPRSS4 (11747572_a_at) / Fold change /veh TMPRSS4 (11747572_a_at) / RFU HAMP (11756126_x_at) / Fold change /veh HAMP (11756126_x_at) / RFU RNFT2 (11725882_a_at) / Fold change /veh RNFT2 (11725882_a_at) / RFU NR4A2 (11747474_a_at) / Fold change /veh NR4A2 (11747474_a_at) / RFU ABCC12 (11746883_a_at) / Fold change /veh ABCC12 (11746883_a_at) / RFU TMEM136 (11760407_x_at) / Fold change /veh TMEM136 (11760407_x_at) / RFU CLDN22 /// WWC2 (11732394_at) / Fold change /veh CLDN22 /// WWC2 (11732394_at) / RFU HLA-DPB1 (11760878_x_at) / Fold change /veh HLA-DPB1 (11760878_x_at) / RFU SPINT1 (11716480_a_at) / Fold change /veh SPINT1 (11716480_a_at) / RFU GAP43 (11754022_s_at) / Fold change /veh GAP43 (11754022_s_at) / RFU A4GNT (11735810_at) / Fold change /veh A4GNT (11735810_at) / RFU PRB3 (11715151_x_at) / Fold change /veh PRB3 (11715151_x_at) / RFU TUBB4B (11761932_at) / Fold change /veh TUBB4B (11761932_at) / RFU CAPN14 (11732068_a_at) / Fold change /veh CAPN14 (11732068_a_at) / RFU TMCC2 (11721928_a_at) / Fold change /veh TMCC2 (11721928_a_at) / RFU IRGQ (11745062_a_at) / Fold change /veh IRGQ (11745062_a_at) / RFU FAM174B (11720279_a_at) / Fold change /veh FAM174B (11720279_a_at) / RFU TMPRSS4 (11748680_a_at) / Fold change /veh TMPRSS4 (11748680_a_at) / RFU FAM212B (11763350_a_at) / Fold change /veh FAM212B (11763350_a_at) / RFU PLEKHG5 (11743358_a_at) / Fold change /veh PLEKHG5 (11743358_a_at) / RFU ZSCAN30 (11745921_a_at) / Fold change /veh ZSCAN30 (11745921_a_at) / RFU CMKLR1 (11741424_a_at) / Fold change /veh CMKLR1 (11741424_a_at) / RFU LOC101060620 /// MAPK8IP1 (11723275_at) / Fold change /veh LOC101060620 /// MAPK8IP1 (11723275_at) / RFU SPTSSB (11747773_x_at) / Fold change /veh SPTSSB (11747773_x_at) / RFU PRSS12 (11739890_at) / Fold change /veh PRSS12 (11739890_at) / RFU BIN1 (11741810_x_at) / Fold change /veh BIN1 (11741810_x_at) / RFU WNT11 (11732464_a_at) / Fold change /veh WNT11 (11732464_a_at) / RFU C10orf10 (11716521_a_at) / Fold change /veh C10orf10 (11716521_a_at) / RFU C5orf56 (11738089_at) / Fold change /veh C5orf56 (11738089_at) / RFU CYB561 (11721691_x_at) / Fold change /veh CYB561 (11721691_x_at) / RFU ANKRD19P (11752326_a_at) / Fold change /veh ANKRD19P (11752326_a_at) / RFU OR2T12 /// OR2T33 /// OR2T8 (11738714_s_at) / Fold change /veh OR2T12 /// OR2T33 /// OR2T8 (11738714_s_at) / RFU VCAN (11748164_a_at) / Fold change /veh VCAN (11748164_a_at) / RFU JSRP1 (11732532_at) / Fold change /veh JSRP1 (11732532_at) / RFU KRTAP10-11 (11738290_x_at) / Fold change /veh KRTAP10-11 (11738290_x_at) / RFU MYO3A (11730013_a_at) / Fold change /veh MYO3A (11730013_a_at) / RFU EBF3 (11725865_a_at) / Fold change /veh EBF3 (11725865_a_at) / RFU CAMK2N1 (11719241_x_at) / Fold change /veh CAMK2N1 (11719241_x_at) / RFU C5orf56 (11738088_a_at) / Fold change /veh C5orf56 (11738088_a_at) / RFU OLFML3 (11715873_a_at) / Fold change /veh OLFML3 (11715873_a_at) / RFU LOC100653217 /// NTM (11731650_a_at) / Fold change /veh LOC100653217 /// NTM (11731650_a_at) / RFU MAPK11 (11762145_a_at) / Fold change /veh MAPK11 (11762145_a_at) / RFU FIZ1 (11724087_x_at) / Fold change /veh FIZ1 (11724087_x_at) / RFU OASL (11726364_x_at) / Fold change /veh OASL (11726364_x_at) / RFU SOX15 (11748057_x_at) / Fold change /veh SOX15 (11748057_x_at) / RFU CD79A (11719716_a_at) / Fold change /veh CD79A (11719716_a_at) / RFU HIST1H1D (11736915_at) / Fold change /veh HIST1H1D (11736915_at) / RFU CASKIN2 (11723855_a_at) / Fold change /veh CASKIN2 (11723855_a_at) / RFU LOC730098 (11760151_x_at) / Fold change /veh LOC730098 (11760151_x_at) / RFU OR4N2 (11742367_at) / Fold change /veh OR4N2 (11742367_at) / RFU PRRT2 (11749266_a_at) / Fold change /veh PRRT2 (11749266_a_at) / RFU SNX32 (11753110_a_at) / Fold change /veh SNX32 (11753110_a_at) / RFU CDHR5 (11726645_a_at) / Fold change /veh CDHR5 (11726645_a_at) / RFU RCAN1 (11760418_a_at) / Fold change /veh RCAN1 (11760418_a_at) / RFU FAM167A (11723789_a_at) / Fold change /veh FAM167A (11723789_a_at) / RFU FAM26E (11764081_at) / Fold change /veh FAM26E (11764081_at) / RFU ISYNA1 (11749810_s_at) / Fold change /veh ISYNA1 (11749810_s_at) / RFU ACY1 (11761880_at) / Fold change /veh ACY1 (11761880_at) / RFU 11764098_at / Fold change /veh 11764098_at / RFU SAMD14 (11745864_x_at) / Fold change /veh SAMD14 (11745864_x_at) / RFU NPB (11741838_a_at) / Fold change /veh NPB (11741838_a_at) / RFU TMPRSS6 (11731388_a_at) / Fold change /veh TMPRSS6 (11731388_a_at) / RFU KRTAP10-2 (11738614_at) / Fold change /veh KRTAP10-2 (11738614_at) / RFU ARHGAP8 /// PRR5-ARHGAP8 (11727945_x_at) / Fold change /veh ARHGAP8 /// PRR5-ARHGAP8 (11727945_x_at) / RFU KRTAP5-7 /// NADSYN1 (11734609_at) / Fold change /veh KRTAP5-7 /// NADSYN1 (11734609_at) / RFU RASL12 (11751679_a_at) / Fold change /veh RASL12 (11751679_a_at) / RFU CDKN2B (11736163_a_at) / Fold change /veh CDKN2B (11736163_a_at) / RFU PRF1 (11729649_at) / Fold change /veh PRF1 (11729649_at) / RFU, ZNF638 /// ZNF638-IT1 / Fold change vs veh, ZNF638 /// ZNF638-IT1 / RFU, PANK3 / Fold change vs veh, PANK3 / RFU, SH3YL1 / Fold change vs veh, SH3YL1 / RFU, ZEB2 / Fold change vs veh, ZEB2 / RFU, NRIP1 / Fold change vs veh, NRIP1 / RFU, PTTG1IP / Fold change vs veh, PTTG1IP / RFU, CAPN2 / Fold change vs veh, CAPN2 / RFU, MED14 / Fold change vs veh, MED14 / RFU, SNORA58 / Fold change vs veh, SNORA58 / RFU, C1orf63 / Fold change vs veh, C1orf63 / RFU, LRRFIP1 / Fold change vs veh, LRRFIP1 / RFU, NDUFAF7 / Fold change vs veh, NDUFAF7 / RFU, SLC12A2 / Fold change vs veh, SLC12A2 / RFU, IBTK / Fold change vs veh, IBTK / RFU, ESF1 / Fold change vs veh, ESF1 / Fold change vs veh, TMEM50B / RFU, TAOK1 / Fold change vs veh, TAOK1 / RFU, ACBD3 / Fold change vs veh, ACBD3 / RFU, TMA16 / Fold change vs veh, TMA16 / RFU, RWDD3 / Fold change vs veh, RWDD3 / RFU, BCAT1 / Fold change vs veh, BCAT1 / RFU, EDEM3 / Fold change vs veh, EDEM3 / RFU, TMEM33 / Fold change vs veh, TMEM33 / RFU, WDR75 / Fold change vs veh, WDR75 / RFU, AHCTF1 / Fold change vs veh, AHCTF1 / RFU, TFRC / Fold change vs veh, TFRC / RFU, ZDHHC17 / Fold change vs veh, ZDHHC17 / RFU, NOM1 / Fold change vs veh, NOM1 / RFU, ARL8B / Fold change vs veh, ARL8B / RFU, ZBTB11 / Fold change vs veh, ZBTB11 / RFU, TAMM41 / Fold change vs veh, TAMM41 / RFU, KIAA1704 /// LOC100996395 / Fold change vs veh, KIAA1704 /// LOC100996395 / RFU, ING1 / Fold change vs veh, ING1 / RFU, TRMT61B / Fold change vs veh, TRMT61B / RFU, FUBP3 / Fold change vs veh, FUBP3 / RFU, TP53 / Fold change vs veh, TP53 / RFU, TNKS2 / Fold change vs veh, TNKS2 / RFU, ZFP14 / Fold change vs veh, ZFP14 / RFU, ACTR2 / Fold change vs veh, ACTR2 / RFU, PPP3R1 / Fold change vs veh, PPP3R1 / RFU, PIK3R1 / Fold change vs veh, PIK3R1 / RFU, HNRNPA1 / Fold change vs veh, HNRNPA1 / RFU, RNF170 / Fold change vs veh, RNF170 / RFU, ZNF28 / Fold change vs veh, ZNF28 / RFU, RNGTT / Fold change vs veh, RNGTT / RFU, OGT / Fold change vs veh, OGT / RFU, BRD1 / Fold change vs veh, BRD1 / RFU, MARS / Fold change vs veh, MARS / RFU, ZNF655 / Fold change vs veh, ZNF655 / RFU, FAHD1 / Fold change vs veh, FAHD1 / RFU, BDP1 / Fold change vs veh, BDP1 / RFU, LRRCC1 / Fold change vs veh, LRRCC1 / RFU, ARID1A / Fold change vs veh, ARID1A / RFU, ZNF146 / Fold change vs veh, ZNF146 / RFU, ZNF330 / Fold change vs veh, ZNF330 / RFU, GPN3 / Fold change vs veh, GPN3 / RFU, C9orf123 / Fold change vs veh, C9orf123 / RFU, N4BP2L2 / Fold change vs veh, N4BP2L2 / RFU, ARFIP1 / Fold change vs veh, ARFIP1 / RFU, FAM179B / Fold change vs veh, FAM179B / RFU, BCL10 / Fold change vs veh, BCL10 / RFU, UHRF1BP1L / Fold change vs veh, UHRF1BP1L / RFU, BET1 / Fold change vs veh, BET1 / RFU, CNOT2 / Fold change vs veh, CNOT2 / RFU, ZNF268 / Fold change vs veh, ZNF268 / Fold change vs veh, ZNF507 / RFU, DGCR2 / Fold change vs veh, DGCR2 / RFU, WDSUB1 / Fold change vs veh, WDSUB1 / Fold change vs veh, HSP90B1 /// MIR3652 / RFU, ADSS / Fold change vs veh, ADSS / RFU, GK / Fold change vs veh, GK / RFU, ZNF148 / Fold change vs veh, ZNF148 / RFU, TAF9 / Fold change vs veh, TAF9 / RFU, SLC1A5 / Fold change vs veh, SLC1A5 / RFU, SLMO2 / Fold change vs veh, SLMO2 / RFU, ABCC4 / Fold change vs veh, ABCC4 / RFU, LOC101060439 /// RAP1B / Fold change vs veh, LOC101060439 /// RAP1B / RFU, RFX7 / Fold change vs veh, RFX7 / RFU, GTPBP10 / Fold change vs veh, GTPBP10 / RFU, CNEP1R1 / Fold change vs veh, CNEP1R1 / RFU, BIVM-ERCC5 /// ERCC5 / Fold change vs veh, BIVM-ERCC5 /// ERCC5 / RFU, ILF3 / Fold change vs veh, ILF3 / RFU 11762660_at / Fold change /veh 11762660_at / RFU VCAN (11757783_s_at) / Fold change /veh VCAN (11757783_s_at) / RFU DDX43 (11728927_at) / Fold change /veh DDX43 (11728927_at) / RFU KRT8 (11758188_x_at) / Fold change /veh KRT8 (11758188_x_at) / RFU NKD1 (11759106_at) / Fold change /veh NKD1 (11759106_at) / RFU SRD5A1 (11742802_a_at) / Fold change /veh SRD5A1 (11742802_a_at) / RFU TPSAB1 /// TPSB2 (11721975_s_at) / Fold change /veh TPSAB1 /// TPSB2 (11721975_s_at) / RFU GSTM3 (11746129_a_at) / Fold change /veh GSTM3 (11746129_a_at) / RFU IL23R (11737362_x_at) / Fold change /veh IL23R (11737362_x_at) / RFU TMEM51 (11727254_a_at) / Fold change /veh TMEM51 (11727254_a_at) / RFU PIWIL2 (11732686_x_at) / Fold change /veh PIWIL2 (11732686_x_at) / RFU ORM1 (11744905_x_at) / Fold change /veh ORM1 (11744905_x_at) / RFU CCDC152 (11743942_at) / Fold change /veh CCDC152 (11743942_at) / RFU ECM1 (11717891_a_at) / Fold change /veh ECM1 (11717891_a_at) / RFU IL23R (11748794_a_at) / Fold change /veh IL23R (11748794_a_at) / RFU TNFAIP8L3 (11732012_x_at) / Fold change /veh TNFAIP8L3 (11732012_x_at) / RFU MBOAT4 (11741988_at) / Fold change /veh MBOAT4 (11741988_at) / RFU 11764193_at / Fold change /veh 11764193_at / RFU TMEM53 (11763286_at) / Fold change /veh TMEM53 (11763286_at) / RFU MAGEB2 (11727129_at) / Fold change /veh MAGEB2 (11727129_at) / RFU TMEM200A (11744735_a_at) / Fold change /veh TMEM200A (11744735_a_at) / RFU CCDC152 (11751479_a_at) / Fold change /veh CCDC152 (11751479_a_at) / RFU FAM211A (11726209_a_at) / Fold change /veh FAM211A (11726209_a_at) / RFU RGS16 (11746705_a_at) / Fold change /veh RGS16 (11746705_a_at) / RFU VCAN (11755009_s_at) / Fold change /veh VCAN (11755009_s_at) / RFU RHOB (11743442_s_at) / Fold change /veh RHOB (11743442_s_at) / RFU RGS16 (11720943_a_at) / Fold change /veh RGS16 (11720943_a_at) / RFU RGS16 (11720944_at) / Fold change /veh RGS16 (11720944_at) / RFU, VPS4B / Fold change vs veh, VPS4B / RFU, CREB1 / Fold change vs veh, CREB1 / RFU, DNAJC13 / Fold change vs veh, DNAJC13 / RFU, GNAQ / Fold change vs veh, GNAQ / RFU, CDK5R1 / Fold change vs veh, CDK5R1 / RFU, ZRANB3 / Fold change vs veh, ZRANB3 / RFU, CUL4A / Fold change vs veh, CUL4A / RFU, CCNY / Fold change vs veh, CCNY / RFU, UFL1 / Fold change vs veh, UFL1 / RFU, COG3 / Fold change vs veh, COG3 / RFU, DIAPH2 / Fold change vs veh, DIAPH2 / RFU, SKA2 / Fold change vs veh, SKA2 / RFU, AFF3 / Fold change vs veh, AFF3 / RFU, LMF1 / Fold change vs veh, LMF1 / RFU, IPO11 / Fold change vs veh, IPO11 / RFU, DFFB / Fold change vs veh, DFFB / RFU, FOXP1 / Fold change vs veh, FOXP1 / RFU, CARD8 / Fold change vs veh, CARD8 / RFU, STRN3 / Fold change vs veh, STRN3 / RFU, ADK / Fold change vs veh, ADK / RFU, RASSF2 / Fold change vs veh, RASSF2 / RFU, WIPF1 / Fold change vs veh, WIPF1 / RFU, LARP1B / Fold change vs veh, LARP1B / RFU, RASA1 / Fold change vs veh, RASA1 / RFU, RB1 / Fold change vs veh, RB1 / RFU, PPFIA1 / Fold change vs veh, PPFIA1 / RFU, MAT2A / Fold change vs veh, MAT2A / RFU, CCT5 / Fold change vs veh, CCT5 / RFU, WDR92 / Fold change vs veh, WDR92 / RFU, CUX1 / Fold change vs veh, CUX1 / RFU, TTC7A / Fold change vs veh, TTC7A / RFU, TMEM135 / Fold change vs veh, TMEM135 / RFU, DEPTOR / Fold change vs veh, DEPTOR / RFU, CPM / Fold change vs veh, CPM / RFU, DNAJB6 / Fold change vs veh, DNAJB6 / RFU, CACNA2D3 / Fold change vs veh, CACNA2D3 / RFU, DTX4 / Fold change vs veh, DTX4 / RFU, TFCP2 / Fold change vs veh, TFCP2 / RFU, GMCL1 /// GMCL1P1 / Fold change vs veh, GMCL1 /// GMCL1P1 / RFU, AEBP2 / Fold change vs veh, AEBP2 / RFU, SNHG1 /// SNORD22 /// SNORD25 /// SNORD26 /// SNORD27 /// SNORD28 /// SNORD29 /// SNORD31 / Fold change vs veh, SNHG1 /// SNORD22 /// SNORD25 /// SNORD26 /// SNORD27 /// SNORD28 /// SNORD29 /// SNORD31 / Fold change (Aza/veh), C12orf56 (ProbeSet 11735607_a_at) / Fold change (ACY-1035/veh), C12orf56 (ProbeSet 11735607_a_at) / Fold change (Aza/veh), FGFR1OP (ProbeSet 11751329_s_at) / Fold change (ACY-1035/veh), FGFR1OP (ProbeSet 11751329_s_at) / Fold change (Aza/veh), VPS36 (ProbeSet 11739960_a_at) / Fold change (ACY-1035/veh), VPS36 (ProbeSet 11739960_a_at) / RFU SYPL1 (11715823_x_at) / Fold change /veh SYPL1 (11715823_x_at) / RFU IGFBP7 (11715501_s_at) / Fold change /veh IGFBP7 (11715501_s_at) / RFU REEP3 (11722064_at) / Fold change /veh REEP3 (11722064_at) / RFU IGLL1 (11728026_x_at) / Fold change /veh IGLL1 (11728026_x_at): dose or concentration left out as unconfirmed. As to conditions: ProbeSet 11725217_a_at; LIST B.

Turning to `Nc1ccc(-c2cccs2)cc1NC(=O)c1ccc2c(c1)cc(C1CC1)n2CCN1CCOCC1` [ACY-1035], the “Fold change vs veh, WDSUB1” value is on record as 1.02.
